Laboratory results published in the supplement of paper PMC10307832.

Assays:
Test in all cases: relative viability (nuclei count vs DMSO), 5 days (fraction); higher = more cells survive
Seliciclib + Trametinib = compound: CC[C@H](CO)Nc1nc(NCc2ccccc2)c2ncn(C(C)C)c2n1 [Seliciclib] + CC(=O)Nc1cccc(-n2c(=O)n(C3CC3)c(=O)c3c(Nc4ccc(I)cc4F)n(C)c(=O)c(C)c32)c1 [Trametinib] (partner 0.02 µM)
Outline: (§1)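 Lung cancer cell lines, seeded in 1536-well plates, were treated the following day by pin tool with a single drug or with five library-drug doses (not always all listed) in √10 steps on top of a fixed anchor-drug dose. Cells were fixed and nuclei stained in one step after 5 days, and nuclei were counted. Relative viability is the nuclei count for treated wells divided by that for vehicle wells, reported as medians of duplicate plates.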

Seliciclib + OSI-027 = compound: CC[C@H](CO)Nc1nc(NCc2ccccc2)c2ncn(C(C)C)c2n1 [Seliciclib] + COc1cccc2cc(-c3nc([C@H]4CC[C@H](C(=O)O)CC4)n4ncnc(N)c34)[nH]c12 [OSI-027] (partner 0.5 µM)
Outline: as §1

Seliciclib + Lapatinib = compound: CC[C@H](CO)Nc1nc(NCc2ccccc2)c2ncn(C(C)C)c2n1 [Seliciclib] + CS(=O)(=O)CCNCc1ccc(-c2ccc3ncnc(Nc4ccc(OCc5cccc(F)c5)c(Cl)c4)c3c2)o1 [Lapatinib] (partner 2 µM)
Outline: as §1

Seliciclib + Linsitinib = compound: CC[C@H](CO)Nc1nc(NCc2ccccc2)c2ncn(C(C)C)c2n1 [Seliciclib] + C[C@]1(O)C[C@@H](c2nc(-c3ccc4ccc(-c5ccccc5)nc4c3)c3c(N)nccn32)C1 [Linsitinib] (partner 1 µM)
Outline: as §1

| Cell Line | relative viability (Seliciclib + Trametinib; first compound 0.08 µM) | relative viability (Seliciclib + Trametinib; first compound 0.253 µM) | relative viability (Seliciclib + Trametinib; first compound 0.8 µM) | relative viability (Seliciclib + Trametinib; first compound 2.53 µM) | relative viability (Seliciclib + Trametinib; first compound 8 µM) | relative viability (Seliciclib + OSI-027; first compound 0.08 µM) | relative viability (Seliciclib + OSI-027; first compound 0.253 µM) | relative viability (Seliciclib + OSI-027; first compound 0.8 µM) | relative viability (Seliciclib + OSI-027; first compound 2.53 µM) | relative viability (Seliciclib + OSI-027; first compound 8 µM) | relative viability (Seliciclib + Lapatinib; first compound 0.08 µM) | relative viability (Seliciclib + Lapatinib; first compound 0.253 µM) | relative viability (Seliciclib + Lapatinib; first compound 0.8 µM) | relative viability (Seliciclib + Lapatinib; first compound 8 µM) | relative viability (Seliciclib + Linsitinib; first compound 0.08 µM) | relative viability (Seliciclib + Linsitinib; first compound 0.253 µM) | relative viability (Seliciclib + Linsitinib; first compound 0.8 µM) | relative viability (Seliciclib + Linsitinib; first compound 8 µM) | relative viability (Seliciclib + Lapatinib; first compound 2.53 µM) | relative viability (Seliciclib + Linsitinib; first compound 2.53 µM) |
| --- | --- | --- | --- | --- | --- | --- | --- | --- | --- | --- | --- | --- | --- | --- | --- | --- | --- | --- | --- | --- |
| NCI-H650 | 0.96 | 1.08 | 1.01 | 0.863 | 0.877 | 0.539 | 0.497 | 0.651 | 0.313 | 0.495 | 0.953 | 1.12 | 1.1 | 0.765 | 0.833 | 0.925 | 1.17 | 0.897 |  |  |
| NCI-H661 | 0.59 | 0.581 | 0.5 | 0.491 | 0.416 | 0.757 | 0.741 | 0.687 | 0.65 | 0.637 | 0.522 | 0.463 | 0.473 | 0.391 | 0.545 | 0.542 | 0.543 | 0.451 | 0.452 | 0.518 |
| NCI-H727 | 0.388 | 0.443 | 0.399 | 0.377 | 0.335 | 0.792 | 0.687 | 0.465 | 0.338 | 0.636 | 0.936 | 0.75 | 0.556 | 0.634 | 0.306 | 0.245 | 0.222 | 0.251 | 0.518 | 0.226 |
| NCI-H838 | 0.516 | 0.485 | 0.523 | 0.449 | 0.451 | 0.425 | 0.44 | 0.325 | 0.247 | 0.292 | 0.967 | 0.92 | 0.926 | 0.362 | 0.933 | 0.864 | 0.943 | 0.966 | 0.868 | 1.07 |
| NCI-H1355 | 0.391 | 0.336 | 0.477 | 0.474 | 0.415 | 0.462 | 0.303 | 0.372 | 0.288 | 0.39 | 0.961 | 0.834 | 0.94 | 0.929 | 0.788 | 0.73 | 0.792 | 0.812 | 0.927 | 0.892 |
| NCI-H1395 | 1.04 | 0.843 | 0.968 |  | 1.04 | 0.728 | 0.576 | 0.606 | 0.612 | 0.587 | 1.03 | 0.811 | 1.09 | 0.861 | 0.961 | 0.739 | 1 | 1.28 | 0.871 | 1.06 |
| NCI-H1437 | 0.5 | 0.551 | 0.562 | 0.398 | 0.401 | 0.844 | 0.877 | 0.99 | 0.52 | 0.787 | 0.824 | 0.949 | 0.882 | 0.618 | 1.02 | 1.06 | 0.974 | 0.786 | 0.777 | 1.16 |
| NCI-H1651 | 0.732 | 0.783 | 0.796 | 0.793 | 0.796 | 0.654 | 0.815 | 0.651 | 0.542 | 0.543 | 0.807 | 0.875 | 0.883 | 0.702 | 0.878 | 0.879 | 0.91 | 0.839 | 0.864 | 0.924 |
